The subject of assay [1] is human malignant melanoma cells G361. The assay can be described thus: In vitro cytotoxic activity, Calcein AM assay, G-361. Format: cell-based. Conditions: 72 hours, read-out: IC 50 G-361. The method in brief:
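Read-out: Calcein AM fluorescence of viable cells, 1 h after dye addition, expressed relative to mean control wells. Compounds were applied for 72 h in DMEM/10% FCS at six 4-fold dilutions, highest usually 166.7 μM; GI50 derived from dose-response curves.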

For a further assay, the system named is Rosa multiflora. Nature of the assay: In vitro and post vitro multiplication and rooting of rose. The assay is classed as in vivo. The note with it: for Root number per plant / Total root length per plant (cm): Ex vitro, after four weeks of acclimatising; for Flower number per explant / Number of new shoots per explant / Root number per explant / Total root length per explant (cm): In vitro, 10 μM, 8 weeks.

The subject of assay [2] is spring wheat (variety Sandra). Nature of the assay: Field studies: yield analysis of spring wheat crop. The assay is classed as in vivo. Conditions: spray of 10^−6 molar solution, Control = 100.0. The method, then: Crops (over the 4-year period) of spring wheat were sown in the experimental fields of Czech Agriculture University (CZU) (region of sugar beet production type) at a seeding rate of 400 germinative grains·m^−2 into ploughed and shoddy soil containing 116.1 mg/kg P, 228.3 mg/kg K, and 211.8 mg/kg Mg (agrochemical analyses were done at Department of Pedology CZU) (interval between ploughing and sowing is usually 3-4 days, longer only in case of adverse weather conditions). Preceding crop was rape. Soil preparation was done by the classical way using skid and harrow and after seeding is rolled.
Height of plants, leaf area, dry matter, development of vegetation opex—bases of future spike, and number of spikelets were monitored after germination in 14 day intervals, […]. From these primary data, values used in production physiology are derived, as leaf area index LAI, photosynthetic capacity LAD, tillering potential. Experiments with treatment of spring wheat crop (variety Sandra) are carried out on the field (area 10 m^2, four replicates) by spraying 1 litr of 10^−6 molar solution of tested compound (cytokinin) at the transition period from jointing stage to athesis stage (49 DC).
Yield analysis, evaluating spike lenght and seed number per spikelet (Σ Z/K) were carried out for 30 plant per each variant, yield from 1 m^2 and 1000 grain weight (HTS) was determined from 8 replicates, yield per ha was subsequently calculated.

The next assay deals with HL-60 cells. Nature of the assay: Induction of apoptosis in HL-60 cells (nuclear morphology, DNA fragmentation). The assay is classed as cell-based, human. The note with it: 24 h (FIG. 5-7). As for the experimental part: Cell culture. A suspension of human promyelocytic HL-60 cells was cultured in RPMI-1640 medium supplemented with a 10% calf foetal serum and antibiotics in 5% CO2 atmosphere at 37° C. Cells were maintained at density from 1×10^5 to 6×10^5 cells per ml. HL-60 cells were obtained from ECACC.
Morphological analysis of cell nuclei. Cells were harvested, washed in PBS, and fixed in an ice-cold methanol+acetic acid (3:1) fixation mixture. Aliquots of cells were spread on glass slides and stained with Hoechst 33342 (2 μg/ml) in PBS. The morphology of cell nuclei was examined by a fluorescence microscope (Mlejnek and Kuglik 2000).
DNA fragmentation assay. Aliquots of cells were washed in PBS and lysed by addition of DNA lysis buffer (50 mM Tris/HCl, pH=8.0, 10 mM EDTA, 0.5% sodium lauroyl sarcosine, and 0.5 mg/ml proteinase K) at 37° C. overnight. Samples were treated further with DNase-free RNase-A (0.2 mg/ml) at 37° C. for 3 h. The resulting extracts were loaded onto 1.8% agarose gel containing ethidium bromide (Mlejnek and Kuglik 2000).

The subject of the next assay is caspase-9. The assay can be described thus: Caspase protease activity measurement in cell extracts, caspase-9. Format: cell-based, human. The note with it: 20 μM, substrate Ac-LEHD-AFC (FIG. 9). As for the experimental part:
Caspase protease activity measurement. Cells were washed in PBS and then extracted in buffer [50 mM HEPES, pH 7.4, 1 mM EDTA, 0.1% Chaps, 5 mM DTT, and proteinase inhibitor cocktail (Roche)] on ice. Cell extracts were centrifuged for 30 min at 30 000×g at 4° C. Clarified extract were immediately analysed or stored at −80° C. […] The assay was carried out in 1 ml tubes, aliquots of lysates (200-300 μg of total protein) were mixed with 1 ml of buffer (25 mM PIPES/KOH, 2 mM EGTA, 5 mM DTT, and 0.1% Chaps, pH 7.3) and reactions were initiated by adding 50 μM substrate. Samples were incubated for 1 hour at 30° C. before the fluorescence was determined. Excitation and emission wavelengths were the same for both substrates (380 nm and 445 nm, respectively).

Molecules are shown by their SMILES.

On to `OC[C@H]1O[C@@H](n2cnc3c(NCc4cccc(F)c4)ncnc32)[C@H](O)[C@@H]1O` [3-fluorobenzylamino, 6-(3-fluorobenzylamino)purine riboside], for which, in assay [1], the IC50 was 15.7 µM.

On to `COc1cccc(CNc2ncnc3c2ncn3[C@@H]2O[C@H](CO)[C@@H](O)[C@H]2O)c1` [3-methoxybenzylamino, 6-(3-methoxybenzylamino)purine riboside], for which, in assay [1], the IC50 was above 167 µM. In addition, in the assay with Rosa multiflora, the “Root number per plant” value stood at 1.4, the “Total root length per plant (cm)” value came to 3.5 cm, the “Flower number per explant” value amounted to 0.00 and the “Number of new shoots per explant” value was determined as 5.6. Also, in the assay with Rosa multiflora, the “Root number per explant” value was 0.0 and the “Total root length per explant (cm)” value is reported as 0.0 cm.

Regarding `OC[C@H]1O[C@@H](n2cnc3c(NCc4cccc(Br)c4)ncnc32)[C@H](O)[C@@H]1O` [3-bromobenzylamino, 6-(3-bromobenzylamino)purine riboside], in assay [2], the “HTS (%) (1000 grain weight)” value was determined as 101.5%, the “Yield(%)” value worked out at 131.8%, the “Σ Z/K (%) (seed number per spikelet)” value is 123.8% and the “Σ spike/m^2 (%)” value is reported as 104.9%.

`COc1cccc(CNc2ncnc3c2ncn3[C@@H]2O[C@H](CO)[C@@H](O)[C@H]2O)c1O` [2-hydroxy-3-methoxybenzylamino, 6-(2-hydroxy-3-methoxybenzylamino)purine riboside]: in assay [1], the IC50 is 148 µM. Further, the “induction of HL-60 cell death / apoptosis” value with HL-60 cells is “induce HL-60 cell death, with typical morphological and biochemical characteristics of apoptosis”. Further, in the assay on caspase-9, the “activation of caspase-9” value was “activate caspase proteases, especially caspase-9 and -3”.

On to `COc1ccccc1CNc1ncnc2c1ncn2[C@@H]1O[C@H](CO)[C@@H](O)[C@H]1O` [2-methoxybenzylamino, 6-(2-methoxybenzylamino)purine riboside], for which the IC50 in assay [1] is above 167 µM. In the assay with Rosa multiflora, the “Root number per plant” value was 1.6, the “Total root length per plant (cm)” value was determined as 4.8 cm, the “Flower number per explant” value was determined as 0.17 and the “Number of new shoots per explant” value came to 1.4. In the assay on Rosa multiflora, the “Root number per explant” value was 0.0 and the “Total root length per explant (cm)” value came to 0.0 cm.

Consider `OC[C@H]1O[C@@H](n2cnc3c(NCc4cccc(Cl)c4)ncnc32)[C@H](O)[C@@H]1O` [3-chlorobenzylamino, 6-(3-chlorobenzylamino)purine riboside], for which, in assay [2], the “HTS (%) (1000 grain weight)” value is 108.3%, the “Yield(%)” value came out at 128.8%, the “Σ Z/K (%) (seed number per spikelet)” value is on record as 119.1% and the “Σ spike/m^2 (%)” value is given as 100.5%.

`OC[C@H]1O[C@@H](n2cnc3c(NCc4ccc(Cl)c(Cl)c4)ncnc32)[C@H](O)[C@@H]1O` [3,4-dichlorobenzylamino, 6-(3,4-dichlorobenzylamino)purine riboside]: in assay [2], the “HTS (%) (1000 grain weight)” value was determined as 101.5%, the “Yield(%)” value came to 113.3%, the “Σ Z/K (%) (seed number per spikelet)” value came out at 111.9% and the “Σ spike/m^2 (%)” value stood at 99.7%.
